One compound from patent US5227466A, “Insulin receptor binding site” (City of Hope, priority 1988, dated 1993) can be followed below.

For the test, the target named is ^125 I-insulin (Homo sapiens, UniProt P01308). Description: 125I-insulin binding to water suspension of the peptide, centrifugation. The protocol:
To test for insulin binding, a water suspension of the peptide was incubated at room temperature with a tracer of ^125 I-insulin followed by simple centrifugation. […] The apparent dissociation constant was ~6×10^-7 M. Non-specific binding was negligible.

pKd: −log10 of the molar value. Where a SMILES comes first, the peptide text is derived from it.

Chain of ^125 I-insulin (P01308 25-54 limits assumed): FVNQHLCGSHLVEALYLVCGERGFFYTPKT
Chain of ^125 I-insulin (P01308 90-110 limits assumed): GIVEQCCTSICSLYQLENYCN

With `CC[C@H](C)[C@H](NC(=O)[C@@H](NC(=O)[C@H](CC(C)C)NC(=O)[C@H](C)NC(=O)[C@H](Cc1ccc(O)cc1)NC(=O)[C@H](CC(N)=O)NC(=O)[C@H](Cc1ccccc1)NC(=O)[C@H](Cc1ccccc1)NC(=O)[C@H](CC(C)C)NC(=O)[C@@H](N)CCCNC(=N)N)C(C)C)C(=O)N[C@@H](Cc1ccccc1)C(=O)N[C@@H](CCC(=O)O)C(=O)N[C@@H](CCSC)C(=O)N[C@H](C(=O)N[C@@H](Cc1c[nH]cn1)C(=O)N[C@@H](CC(C)C)C(=O)N[C@@H](CCCCN)C(=O)N[C@@H](CCC(=O)O)C(=O)O)C(C)C` [Sequence I] (H-RLFFNYALVIFEMVHLKE-OH), where the note is “displacement of ^125 I-insulin by unlabelled insulin (FIG. 4), read-out: apparent dissociation constant”, the pKd was roughly 6.22. Moreover, the “fraction of ^125 I-insulin tracer bound by the peptide” value (water suspension of the peptide, room temperature, centrifugation) was “up to 30%”.
